The results in this text go back to patent publication US12384969B2, “Enhancement of soil characteristics with lactobionate compounds” (Leprino Foods Company, priority 2017, dated 2025).

SMILES strings stand for the structures.

The subject of one series is soil microbial biomass. Description: Soil microbial biomass carbon (MBC), chloroform-fumigation extraction, two-month laboratory soil incubation.
The nature of series [1]: Water absorbed after exposure to 100% relative humidity for 4 hours (FIG. 6). It counts as physicochemical. The conditions noted are these: nine substances plus control. The source says: When one of the hydroxyl groups occurs in the alpha position, the PHA is a polyhydroxy alpha-hydroxy acid (AHA); when an additional sugar is attached to the PHA structure the molecule is a bionic acid. […] The multiple hydroxyl groups in PHAs attract and hydrogen bond surrounding water molecules, which increase the humectant properties of the compounds.

The mark [2] stands for this setting: Akron, CO (Ak) soil, HC, 1 month.
[3] abbreviates: Akron, CO (Ak) soil, LC, 1 month.
Setting [4] is: Fresno, CA (Fr) soil, HC, 1 month.
[5] abbreviates: Fresno, CA (Fr) soil, HC, 2 wks.
Setting [6] is: Fresno, CA (Fr) soil, LC, 1 month.
[7] abbreviates: Fresno, CA (Fr) soil, LC, 2 wks.

Regarding `N.O=C(O)[C@H](O)[C@@H](O)[C@H](O[C@@H]1O[C@H](CO)[C@H](O)[C@H](O)[C@H]1O)[C@H](O)CO` [NH4-LB, ammonium lactobionate], the MBC against soil microbial biomass (setting [2]) is on record as 869.62^EF mg C kg -soil; against soil microbial biomass (Akron, CO (Ak) soil, HC, 2 wks), 11037.60^A mg C kg -soil; in the series on soil microbial biomass (setting [3]) it was 3225.38^DEF mg C kg -soil; in the series with soil microbial biomass (Akron, CO (Ak) soil, LC, 2 wks) it was 9911.52^A mg C kg -soil; against soil microbial biomass (setting [4]), 18504.80^A mg C kg -soil; with soil microbial biomass (setting [5]) it was 13627.26^A mg C kg -soil. The MBC against soil microbial biomass (setting [6]) is 739.12^EF mg C kg -soil; in the series on soil microbial biomass (setting [7]), 8610.50^AC mg C kg -soil. The “Total MBC compared between LB amendments” value with soil microbial biomass (at 1 month) is “lower”.
In the case of `O=C([O-])[C@H](O)[C@@H](O)[C@H](O[C@@H]1O[C@H](CO)[C@H](O)[C@H](O)[C@H]1O)[C@H](O)CO.O=C([O-])[C@H](O)[C@@H](O)[C@H](O[C@@H]1O[C@H](CO)[C@H](O)[C@H](O)[C@H]1O)[C@H](O)CO.[Ca+2]` [Ca-LB, calcium lactobionate], the MBC against soil microbial biomass (setting [2]) was 6395.35^CDE mg C kg -soil; with soil microbial biomass (Akron, CO (Ak) soil, HC, 2 wks) it was 9197.28^ABC mg C kg -soil; against soil microbial biomass (setting [3]) it was 9816.22^C mg C kg -soil; against soil microbial biomass (Akron, CO (Ak) soil, LC, 2 wks) it was 13087.10^A mg C kg -soil; against soil microbial biomass (setting [4]), 11289.89^BC mg C kg -soil; against soil microbial biomass (setting [5]), 10362.94^A mg C kg -soil. The MBC was 7560.73^CD mg C kg -soil in the series on soil microbial biomass (setting [6]) and 10133.11^A mg C kg -soil in the series with soil microbial biomass (setting [7]).
With `O=C(O)[C@H](O)[C@@H](O)[C@H](O[C@@H]1O[C@H](CO)[C@H](O)[C@H](O)[C@H]1O)[C@H](O)CO` [LBA, lactobionic acid], in series [1], the “Weight of water absorbed per mole of substance” value is on record as “highest”.
`O=C([O-])[C@H](O)[C@@H](O)[C@H](O[C@@H]1O[C@H](CO)[C@H](O)[C@H](O)[C@H]1O)[C@H](O)CO.[K+]` [K-LB, potassium lactobionate]: the MBC with soil microbial biomass (setting [2]) is on record as 7790.40^CD mg C kg -soil; against soil microbial biomass (Akron, CO (Ak) soil, HC, 2 wks), 8349.51^AC mg C kg -soil; with soil microbial biomass (setting [3]), 10597.30^BC mg C kg -soil; in the series on soil microbial biomass (Akron, CO (Ak) soil, LC, 2 wks) it was 11189.75^A mg C kg -soil; against soil microbial biomass (setting [4]), 16689.85^AB mg C kg -soil; in the series on soil microbial biomass (setting [5]), 1369.60^A mg C kg -soil. In addition, the MBC with soil microbial biomass (setting [6]) is given as 7277.63^CD mg C kg -soil; against soil microbial biomass (setting [7]) it was 12167.76^A mg C kg -soil.
